In article PMC11929074, “An in vitro platform for the enzymatic characterization of the rhomboid protease RHBDL4” (The Journal of Biological Chemistry, 2025):
One block for each molecule: values may come before it. *1 amine or outer side, *2 acyl side, *3 side chain or, on linkers, in order; H or OH if unused. Where a SMILES comes first, the peptide text is derived from it. [ ]: non-standard residue; d: D form. The star is where a group is joined. NH(4-phenylbutyl) = c1ccc(CCCCN*)cc1; X1 = C[C@H](N[*:1])C(=O)C(=O)[*:2]

Experiments:
[1] = test system: WT RHBDL4 (recombinant, purified); experiment: TAMRA-FP competition labelling on recombinant RHBDL4; assay type: binding, human; conditions: in-gel Cy3 fluorescence, compared with inactive RHBDL4-S144A control
Source text: (§1) B, schematic representation of the peptidyl-α-ketoamide scaffold with peptide sequence P5-P1 at the nonprime side and hydrophobic substituent (R) at the prime side. C, schematic representation of the peptidyl-α-ketoamide inhibitor, compound 1a/1b. D, representative inhibition curve derived from measuring rates of RHBDL4 proteolysis of the fluorescent substrate IQ6 with increasing concentrations of compound 1a. E, same as (D), except inhibition curve was derived from using increasing concentrations of compound 1b. […] Reactions were quenched with 1 keLaemmli buffer and loaded on 12% SDS-PAGE gel. Post-transfer membranes were visualized using a fluorescence Cy3 filter and by Western blotting using an α-His antibody. For (A, D, and E), all inhibitors were pre-incubated with RHBDL4 for 1 h and allowed to react with the IQ6 substrate for 2 h.
(§2) B, representative inhibition curve derived from measuring rates of RHBDL4 proteolysis of the fluorescent substrate IQ6 with increasing concentrations of compound 3. C, same as (B), except inhibition curve was derived from using increasing concentrations of compound 4. […] Reactions were quenched with 1 RLaemmli buffer and loaded on 12% SDS-PAGE gel. Post-transfer membranes were visualized using a fluorescence Cy3 filter and by Western blotting using an α-His antibody. E, saturation curve of RHBDL4 using fluorescent substrate, KSp207. For (B and C), all inhibitors were pre-incubated with RHBDL4 for 1 h and allowed to react with the IQ6 substrate for 2 h. […] I assigned them to the substrate KSp207, which is named on the x-axis and in the inset table.

recombinant human RHBDL4 [2] = target: T1, recombinant human RHBDL4 (Homo sapiens, UniProt Q8TEB9); experiment: FRET-based cleavage assay with fluorescent (IQ / KSp207) substrates; assay type: biochemical; conditions: for kcat / pH of highest RHBDL4 protease activity / salt concentration range with satisfactory activity: triplicate; for kcat: average ± S.E.M.; for pH of highest RHBDL4 protease activity: pH range 5 to 10; for salt concentration range with satisfactory activity: salt tested 100 to 300 mM
T1 construct: The entire RHBDL4 and RHBDL4-S144A cDNAs were subcloned into the pcDNA3.1 vector; 6xHis (C, cleaved yes); made in house; host or cells: Freestyle 293-F cells (transient transfection, pcDNA3.1-HisA)
T1 sequence (Q8TEB9 1-315): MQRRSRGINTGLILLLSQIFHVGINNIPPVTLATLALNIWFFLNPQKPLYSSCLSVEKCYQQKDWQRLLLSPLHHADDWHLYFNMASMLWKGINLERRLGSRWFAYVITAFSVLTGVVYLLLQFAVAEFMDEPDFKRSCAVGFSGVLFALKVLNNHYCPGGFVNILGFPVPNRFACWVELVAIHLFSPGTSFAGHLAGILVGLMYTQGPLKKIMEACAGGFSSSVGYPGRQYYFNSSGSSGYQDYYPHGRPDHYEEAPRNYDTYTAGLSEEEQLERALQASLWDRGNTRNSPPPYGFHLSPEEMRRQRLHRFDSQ
Protocol: Figure 2 Kinetic characterization of recombinant human RHBDL4.A, schematic representation of the FRET-based cleavage assay using internally quenched (IQ) substrates. B, saturation curves of RHBDL4 using the fluorescent IQ substrates, IQ6, IQ41, and IQ46. C, pH dependence of the RHBDL4 protease activity using substrates IQ6, IQ41, and IQ46. D, salt concentration dependence of the RHBDL4 protease activity using substrates IQ6, IQ41, and IQ46. All the assays were performed in triplicate, and data points are represented by the average ± S.E.M. TEXT PRINTED IN THE PICTURE: (B) IQ 6: KM(μM) 10.73±2; Kcat(hr^-1) 7.33±0.6 | (B) IQ 41: KM(μM) 5.63±2; Kcat(hr^-1) 2.41±0.6 | (B) IQ 46: KM(μM) 7.19±1; Kcat(hr^-1) 3.62±0.8
(§3) The reaction setup in our FRET assay enabled the direct determination of Michaelis–Menten kinetic parameters Km and kcat for the cleavage of IQ6, IQ41, and IQ46 by RHBDL4. Our fluorescence reading data were converted to μM/h using the standard calibration curve for all three IQ substrates, and the correction factor for the inner filter effect was applied. We confirmed that purified RHBDL4 followed Michaelis–Menten kinetics with KmIQ6=10.73±2μΜ , KmIQ41=5.63±2μΜ , and KmIQ46=7.19±1μΜ and kcatIQ6=7.33±0.6h^−1 , kcatIQ41=2.41±0.6h^−1 , and kcatIQ46=3.62±0.08h^−1 (Figs. 2B and S2B).
Our FRET-based assay is a suitable platform for optimizing conditions that enhance RHBDL4 protease activity. To this end, we selected the optimal pH for RHBDL4 protease activity and performed FRET-based assays with IQ6, IQ41, and IQ46 at a pH range of 5 to 10. […] The optimal salt concentration for the RHBDL4 protease activity was also tested in the range of 100 to 300 mM (Fig. 2D). We conclude that with the IQ6, IQ41, and IQ46 substrates, RHBDL4 had satisfactory activity in a salt concentration range of 100 to 300 mM.
as §2, with “Figure 5 In vitro inhibition of RHBDL4 activity with TMED7-derived peptidyl α-ketoamides.A, schematic representation of the peptidyl-α-ketoamide inhibitor, compound 3 and 4. B,” for “B,”
(§4) The enzymatic assay was performed as previously described (Arutyunova et al., 2014, ([26])). […] The FRET-based cleavage assay was conducted in a fluorescence multiwell plate reader (SynergyMx, BioTek). Upon excitation at 320 nm, the emission intensity at 400 nm was recorded for 2 h at minimal intervals under shaking conditions and plotted using the GraphPad PRISM software. The initial velocities were defined as the slopes of the curve of the generated product as a function of time. The plots of the generated product against the corresponding substrate concentration were fitted with the Michaelis–Menten equation. Catalytic parameters were extrapolated using GraphPad PRISM. […] The samples were desalted using C18 tips (Rainin), eluted in 80% acetonitrile, and dried down in a vacuum centrifuge prior to mass spectrometry analysis.
All the calculations for Km, Vmax, and Kcat for RHBDL4 and its mutants were performed using GraphPad PRISM.

RHBDL4-S144A = experiment: FRET-based cleavage by inactive RHBDL4-S144A; assay type: biochemical, human; conditions: pH 8, 37 °C
Source text: as §3
Figure 3 Dependence of conserved rhomboid motifs on RHBDL4 protease activity.A, RHBDL4 representation highlighting TM1–6 (in green), the VBM- and UIM-binding motifs (in blue), the conserved rhomboid motifs (WR and Gx3G), and the serine-histidine catalytic dyad (in pink). The table indicates the RHBDL4 region, the conserved rhomboid motifs, and amino acid mutation. The RHBDL4 proteolytic activity. B, size-exclusion chromatography profile of RHBDL4-AR and RHBDL4-Ax3G, being eluted as a monomeric protein. C, coomassie staining and Western blotting using an α-His antibody of concentrated purified RHBDL4-AR and RHBDL4-Ax3G. D, activity profiles of the WT RHBDL4 and mutant RHBDL4-S144A, RHBDL4-AR, and RHBDL4-Ax3G proteins, as measured by cleavage of the fluorescent substrate IQ6. Assay was performed in triplicate (n = 3), and data points are represented by the average ± S.E.M. Statistically significant differences compared to WT RHBDL4 are indicated (pairwise Dunnett's test followed by Bonferroni's post hoc analysis; ∗p < 0.05, n.s., no significance).
The enzymatic assay was performed as previously described (Arutyunova et al., 2014, ([26])). […] The FRET-based cleavage assay was conducted in a fluorescence multiwell plate reader (SynergyMx, BioTek). Upon excitation at 320 nm, the emission intensity at 400 nm was recorded for 2 h at minimal intervals under shaking conditions and plotted using the GraphPad PRISM software. […]

[3] = target: T2, WT RHBDL4 (human rhomboid protease RHBDL4, recombinant) (human) (UniProt Q8TEB9)
T2 sequence: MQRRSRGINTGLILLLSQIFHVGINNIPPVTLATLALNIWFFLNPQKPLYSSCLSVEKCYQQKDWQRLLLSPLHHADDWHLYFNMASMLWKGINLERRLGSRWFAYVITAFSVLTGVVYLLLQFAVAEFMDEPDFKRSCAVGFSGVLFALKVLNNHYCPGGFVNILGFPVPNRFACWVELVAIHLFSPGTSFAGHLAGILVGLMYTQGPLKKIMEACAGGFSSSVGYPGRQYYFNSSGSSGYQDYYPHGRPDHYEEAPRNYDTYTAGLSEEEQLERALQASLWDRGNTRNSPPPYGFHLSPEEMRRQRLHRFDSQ

recombinant human RHBDL4 [4] = target: T1, recombinant human RHBDL4; experiment: Inhibition of RHBDL4 proteolysis of IQ6 (FRET-based in vitro assay); assay type: biochemical; conditions: IQ6 substrate; for inhibition of RHBDL4 proteolytic activity: increasing concentrations, 1 h pre-incubation, 2 h reaction, n = 3
Source text: as §1, §2, §4

[5] = Michaelis-Menten, 1.5 μM RHBDL4, 37 °C, 2 h, pH 8.0, 150 mM NaCl, 0.1% DDM

Molecule: CC(=O)N[C@H](C(=O)N[C@@H](CCCNC(=N)N)C(=O)NC(Cc1c[nH]cn1)C(=O)N[C@@H](C)C(=O)C(=O)N[C@H](COCc1ccccc1)Cc1ccccc1)C(C)C (stereo partly shown) [compound 1a]
competition with TAMRA-FP probe (fluorescent signal) [1]: significant reduction of fluorescent signal

Molecule: mca-FVTKGK(dnp) [IQ41, fluorescent internally quenched substrate mca-FVTKGK(dnp)]
kcat (recombinant human RHBDL4 [2]; 37 °C, pH 8.0): 0.000669 ± 0.00017 s⁻¹ | kcat (recombinant human RHBDL4 [2]; [5]): 0.000669 ± 0.00017 s⁻¹ | pH of highest RHBDL4 protease activity (recombinant human RHBDL4 [2]): 7 | salt concentration range with satisfactory activity (recombinant human RHBDL4 [2]): 100 to 300 mM | cleavage by inactive RHBDL4-S144A (increase in fluorescence / activity) (RHBDL4-S144A): negligible increase in fluorescence

Molecule: mca-FLVRGK(dnp) [IQ46, fluorescent internally quenched substrate mca-FLVRGK(dnp)]
kcat (recombinant human RHBDL4 [2]; 37 °C, pH 8.0): 0.00101 ± 0.00022 s⁻¹ | kcat (recombinant human RHBDL4 [2]; [5]): 0.00101 ± 2.2e-05 s⁻¹ | pH of highest RHBDL4 protease activity (recombinant human RHBDL4 [2]): 8 | salt concentration range with satisfactory activity (recombinant human RHBDL4 [2]): 100 to 300 mM | cleavage by inactive RHBDL4-S144A (increase in fluorescence / activity) (RHBDL4-S144A): negligible increase in fluorescence

IC50 of inhibition of RHBDL4 proteolysis of the fluorescent substrate IQ6 (in vitro FRET-based activity assay; 1 h pre-incubation, 2 h reaction) [3]: 6.1 µM
Molecule: compound 1b (peptidyl α-ketoamide, Ac-VRHA-CONH-CH(Bn)-CH2OBn) (peptide)

Molecule: Cl.NCCc1ccc(S(=O)(=O)F)cc1 [4-(2-aminoethyl) benzenesulfonyl fluoride hydrochloride]
inhibition of RHBDL4 proteolytic activity (recombinant human RHBDL4 [4]): weak inhibition at all concentrations tested

Molecule: CC(=O)N[C@H](C(=O)N[C@@H](CCCNC(=N)N)C(=O)NC(Cc1c[nH]cn1)C(=O)N[C@@H](C)C(=O)C(=O)N[C@H](COCc1ccccc1)Cc1ccccc1)C(C)C (stereo partly shown) [compound 1b]
competition with TAMRA-FP probe (fluorescent signal) [1]: significant reduction of fluorescent signal

IC50 of inhibition of RHBDL4 proteolysis of the fluorescent substrate IQ6 (in vitro FRET-based activity assay; 1 h pre-incubation, 2 h reaction) [3]: 2.31 µM
Molecule: compound 1a (peptidyl α-ketoamide, Ac-VRHA-CONH-CH(Bn)-CH2OBn) (peptide)

Molecule: O=c1oc(Cl)c(Cl)c2ccccc12 [3,4-dichloroisocoumarin]
inhibition of RHBDL4 proteolytic activity (recombinant human RHBDL4 [4]): inhibited the RHBDL4 proteolytic activity only at higher concentrations (100 μM)

Molecule: Ac-QMESA-4mc [KSp207, TMED7-derived fluorescent substrate Ac-QMESA-4mc]
cleavage rate/efficiency relative to other substrates (recombinant human RHBDL4 [2]; FRET-based assay): higher enzymatic cleavage efficiency than IQ6 | kcat (recombinant human RHBDL4 [2]; [5]): 0.003069 ± 0.00022 s⁻¹ | catalytic rate (cleavage rate) (recombinant human RHBDL4 [2]; approximate, discussion): ~11 h⁻¹

Molecule: Cc1ccc(S(=O)(=O)N[C@@H](Cc2ccccc2)C(=O)CCl)cc1 [N-p-tosyl-L-phenylalanine chloromethyl ketone]
inhibition of RHBDL4 proteolytic activity (recombinant human RHBDL4 [4]): weak inhibition at all concentrations tested

IC50 (recombinant human RHBDL4 [4]; inhibitor pre-incubated with RHBDL4 for 1 h, then reacted with IQ6 for 2 h, n = 3, average ± S.E.M.): 3.4 ± 1.2 µM
Molecule: CC(=O)N1CCC[C@H]1C(=O)NCC(=O)N[C@@H](Cc1ccccc1)C(=O)N[C@@H](CO)C(=O)N[C@@H](C)C(=O)C(=O)NCCCCc1ccccc1 [compound 2] (Ac-PGFS[X1]-{NH(4-phenylbutyl)})

IC50 of inhibition of RHBDL4 activity (in vitro FRET-based activity assay) [3]: 3.4 µM
B1: compound 2 (IQ6-derived peptidyl α-ketoamide, Ac-PGFSA-CONH-(CH2)4-Ph) (peptide)
peptide: Ac-PGFSA-{α‑ketoamide CONH‑(CH2)4‑Ph}
